The results in this text go back to article PMC6888386, “Identification of Novel 1,3,5-Triphenylbenzene Derivative Compounds as Inhibitors of Hen Lysozyme Amyloid Fibril Formation” (International Journal of Molecular Sciences, 2019).

Data set [1] deals with caspase-3 activity in SH-SY5Y cells. As to the kind of experiment: Caspase-3 activity after exposure to HEWL aggregates. To be noted: 24 h; for Prevention of the apoptotic response (caspase-3 activation) induced by aggregates: 2 µM HEWL aggregates formed in the presence of 0.32 µM compound. The class given is cell-based, human. The method, then:
(§1) We then assessed the cytotoxicity of HEWL aggregates, formed in the absence or presence of compounds 1–6, according to the aggregation protocol described for the ThT experiments. HEWL aggregates were collected by centrifugation, dried under N2, dissolved in cell culture medium, and added to SH-SY5Y human neuroblastoma cells at a concentration of 2 µM (monomer equivalents). The ability of the resulting aggregates to cause cellular dysfunction was assessed by performing the MTT reduction inhibition assay, a widely used indicator of mitochondrial dysfunction. […] Very similar results were obtained by measuring the activity of caspase-3, a well-recognized apoptotic marker. A significant activation of caspase-3 (320 ± 12%, as compared to untreated cells) was observed following treatment for 24 h of SH-SY5Y cells with HEWL aggregates at 2 µM (Figure 7B).
(§2) Authenticated human neuroblastoma SH-SY5Y cells were purchased from American Type Culture Collection (ATCC) (Manassas, VA, USA) and they tested negative for mycoplasma contaminations. SH-SY5Y cells were cultured in Dulbecco’s modified Eagle’s medium (DMEM), F-12 Ham with 25 mM HEPES and NaHCO3 (1:1) supplemented with 10% fetal bovine serum (FBS), 1.0 mM glutamine and 1.0% penicillin and streptomycin solution. Cells were maintained in a 5.0% CO2 humidified atmosphere at 37 °C and grown until 80% confluence for a maximum of 20 passages.
HEWL aggregates were formed in the absence or in the presence of 0.32 µM of compounds 1–6 as described in the previous section and then added to the cell culture medium of SH-SY5Y cells seeded on glass coverslips for 24 h at 2 μM (monomer equivalents). Caspase-3 activity was then analyzed by using FAM FLICA^TM caspases 3 & 7 solution (caspase 3 & 7 FLICA kit FAM-DEVDFMK, Immunochemistry Technologies, LLC, Bloomington, MN, USA). Cell fluorescence was analyzed by the TCS SP8 scanning confocal microscopy system (Leica Microsystems, Mannheim, Germany) equipped with an argon laser source, as previously reported. A series of 1.0 μm thick optical sections (1024 × 1024 pixels) was taken through the cell depth for each sample using a Leica Plan Apo 63 × oil immersion objective for fluorescence measurement at 488 nm. The confocal microscope was set at optimal acquisition conditions, e.g., pinhole diameters, detector gain, and laser powers. Settings were maintained constant for each analysis.

Data set [2] concerns the target T1, hen egg white lysozyme (HEWL) (Gallus gallus, UniProt P00698).
T1 construct: Hen egg white lysozyme (HEWL), thioflavin T (ThT), and Congo red (CR) were purchased from Sigma-Aldrich; purchased Sigma-Aldrich (St. Louis, MO, USA); host or cells: hen egg white (per the product name)
As to the kind of experiment: Congo red (CR) assay of HEWL aggregation. The class given is biochemical. As to conditions: 0.32 µM compound; for CR absorbance relative to that measured in the absence of the compounds: HEWL pre-incubated 48 h under aggregating conditions. The method, then:
Aliquots of the same samples used for ThT experiments were also used to carry out the CR assays. […] The higher CR absorbance obtained in the presence of HEWL is likely to originate from the presence of protein aggregates that scatter light, whereas the red shift of the peak from 490 to 520–540 nm indicates the presence of β-sheet containing aggregates.
(§3) HEWL concentration was determined by optical absorption at 280 nm (ε280 = 2.65 L·g^−1·cm^−1). HEWL was dissolved to a concentration of 2 mg/mL (140 µM) in 50 mM glycine buffer, pH 2.5, centrifuged for 10 min at 13,000 rpm, then incubated at 57 °C for the specified time lengths in the absence or presence of the indicated concentrations of compounds 1–6, under gentle stirring at 250 rpm by a Teflon magnetic bar.
Since compounds 1–6 have optical absorption spectra partially overlapped to that of CR, all protein samples were centrifuged at 10,000 rpm and the pellets resuspended in 50 mM glycine buffer, pH 2.5, at room temperature. A mother solution of 20 mM CR was prepared in 5 mM sodium phosphate buffer, 150 mM NaCl, pH 7.4, it was then filtered using a center-glass N4 filter and stored at 4 °C, until it was placed at room temperature immediately before use. At different time points during protein aggregation, a 60 μL aliquot of resuspended protein solution was mixed with 440 μL of CR solution. Optical absorption spectra were acquired after 2–3 min equilibration at 25 °C, using a Cecil 7200 UV–visible spectrophotometer (Aquarius, Cambridge, England) and a 1 cm path-length cell.

The target of data set [3] is T1, hen egg white lysozyme (HEWL). As to the kind of experiment: ThT fluorescence assay of HEWL amyloid fibril formation. As to conditions: 48 h; for pIC50: HEWL 2 mg/mL (140 µM), 50 mM glycine buffer pH 2.5, 57 °C, stirring 250 rpm, compound 0.03-2.6 µM, Figure 2, read-out: IC50 of prevention of HEWL amyloid fibril formation. The class given is biochemical. The method, then:
The inhibition potential of the six compounds was determined using the ThT fluorescence assay to measure the amount of amyloid aggregates after the addition of various concentrations of each compound ranging from 0.03 to 2.6 µM. Aggregation of HEWL was induced by incubating the protein for 48 h at a concentration of 2 mg/mL (140 µM) in 50 mM glycine buffer, pH 2.5, and 57 °C, while stirred gently by magnetic bars (rpm 250), in the absence or presence of 0.03–2.6 µM compounds 1–6. […] The IC50 values of the compounds, corresponding to the concentration at which the inhibitory effect is half of the maximum effect, were determined (Figure 2).
as §3
A mother solution of 2.5 mM ThT was prepared in 10 mM sodium phosphate buffer, 150 mM NaCl, pH 7.0. It was then passed through a 0.45 μm filter paper and stored at 4 °C until it was placed at room temperature immediately before use. At regular time intervals, a 10 µL aliquot of protein solution was mixed with 990 μL of ThT solution in a 10 × 10 mm quartz cuvette and the fluorescence emission spectra were recorded at room temperature using a Cary Eclipse VARIAN fluorescence spectrophotometer (Varian, Mulgrave, Australia) and an excitation wavelength of 440 nm.

Data set [4] deals with SH-SY5Y human neuroblastoma cells. Kind of data set: MTT reduction test with HEWL aggregates. It is filed as cell-based. As to conditions: for Rescue of cell viability (MTT reduction): 2 µM HEWL aggregates formed in the presence of 0.32 µM compound. The method, then: as §1, §2
HEWL samples pre-incubated for 48 h under aggregating conditions in the absence or presence of 0.32 µM compounds 1–6 were centrifuged and the pellets were dried under N2 to remove any compounds and DMSO, dissolved in cell culture medium at a final HEWL concentration of 2 μM (monomer equivalents), and added to SH-SY5Y cells seeded in 96-well plates for 24 h at 37 °C. The cell medium was then removed and the MTT solution (0.5 mg/mL in RPMI) was added to the cells for 4 h. The medium was then aspirated, and the formazan product was solubilized with cell lysis buffer (20% SDS, 50% N, N-dimethylformamide, pH 4.7) for 1 h, as previously described.
A general note: Tetrazolium assays rely on reduction of a dye to a coloured formazan, in cell work by metabolically active cells.

Data set [5] has as its target T1, hen egg white lysozyme (HEWL). As to the kind of experiment: Atomic force microscopy of HEWL aggregates. To be noted: 0.32 µM compound, HEWL 140 µM, pH 2.5, 57 °C, 48 h. It is filed as biochemical. As for the experimental part: In order to define further the nature of the aggregated species, an analysis of their morphologies was carried out using AFM. HEWL was incubated under the same aggregation conditions used for the ThT, CR, and FTIR experiments, i.e., for 48 h at a concentration of 2 mg/mL (140 µM) in 50 mM glycine buffer, pH 2.5, and 57 °C, under stirring (250 rpm), in the absence or presence of 0.32 µM of compounds 1–6 and the resulting samples were examined by AFM (Figure 6). […] Rather, oligomeric and/or amorphous species were predominant.
HEWL samples pre-incubated for 48 h under aggregating conditions with or without 0.32 µM compounds 1–6 were diluted 100 times in filtered deionized water. A 5 µL aliquot of each of the resulting samples was placed on freshly cleaved mica at room temperature. After a few minutes, the mica was slowly washed with 100 μL of deionized water and dried with N2. Each image was acquired in a non-contact mode at a scan speed of 30 μm/s, loop filter of 3 Hz and force of 200 nN with a Dual Scope Probe Scanner (Veeco, model Auto probe, CP-Research, CA, USA) with an area of 5 × 5 μm^2. Conical shape silicon tips (MikroMasch NSC16) with a resonance frequency of 150 kHz and a nominal constant of 40 N/m were used. Fifteen images were collected for each compound.

[6] abbreviates: 24 h, 2 µM (monomer equivalents) HEWL aggregates formed in the presence of 0.32 µM compound.
The mark [7] stands for this setting: 24 h exposure, 2 µM (monomer equivalents), no compound.

pIC50: −log10 of the molar value.

T1 sequence (P00698 19-147): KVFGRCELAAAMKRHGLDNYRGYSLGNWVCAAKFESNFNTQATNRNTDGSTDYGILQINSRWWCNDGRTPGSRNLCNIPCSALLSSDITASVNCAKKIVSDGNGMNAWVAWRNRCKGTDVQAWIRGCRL

As to `c1ccc(-c2cc(-c3ccccc3)cc(-c3ccccc3)c2)cc1` [Compound 1, 1,3,5-triphenylbenzene], the melting point was 171 to 173 °C. Further, the “Prevention of the apoptotic response (caspase-3 activation) induced by aggregates” value (shortened to “Prevention of the apoptotic response”) in data set [1] is on record as “significantly prevented”. In addition, the “CR absorbance relative to that measured in the absence of the compounds” value (from here on “CR absorbance relative to that measured”) in data set [2] is “lower”. For the same compound, the pIC50 in data set [3] is 7.00. Moreover, the “MTT reduction relative to untreated cells” value in data set [4] (setting [6]) came out at 92.7 ± 3.2%.
`O=[N+]([O-])c1ccc(-c2cc(-c3ccc([N+](=O)[O-])cc3)cc(-c3ccc([N+](=O)[O-])cc3)c2)cc1` [Compound 3, 1,3,5-tris(4-nitrophenyl)benzene] registered a melting point of 151 to 152 °C. Further, in data set [1], the “Prevention of the apoptotic response” value is reported as “only a slight protective effect”. Further, the “CR absorbance relative to that measured” value in data set [2] is “lower”. In data set [3], the pIC50 was 6.72. Further, the “Rescue of cell viability (MTT reduction)” value in data set [4] (24 h) is “partial rescue”.
Taken in the same sequence, the figures for `Cc1ccc(-c2cc(-c3ccc(C)cc3)cc(-c3ccc(C)cc3)c2)cc1` [Compound 4, 1,3,5-tris(4-methylphenyl)benzene] were 178 to 179 °C, “significantly prevented”, “lower”, 6.40 and “partial rescue”.
Take `COc1ccc(-c2cc(-c3ccc(OC)cc3)cc(-c3ccc(OC)cc3)c2)cc1` [Compound 5, 1,3,5-tris(4-methoxyphenyl)benzene]: the melting point lay in the range of 142 to 143 °C. Also, in data set [1], the “Prevention of the apoptotic response” value is recorded as “significantly prevented”. Further, the “Morphology of HEWL aggregates by AFM” value in data set [5] is reported as “a few short fibrillar assemblies along with oligomeric species”. Besides, the “CR absorbance relative to that measured” value in data set [2] was “lower”. Further, the pIC50 in data set [3] was 6.70. In addition, the “MTT reduction relative to untreated cells” value in data set [4] (setting [6]) came out at 93.9 ± 2.9%.
Compound `Oc1ccc(-c2cc(-c3ccc(O)cc3)cc(-c3ccc(O)cc3)c2)cc1` [Compound 6, 1,3,5-tris(4-hydroxyphenyl)benzene] came in with a melting point of 237 to 239 °C. The “Prevention of the apoptotic response” value in data set [1] is on record as “only a slight protective effect”. Besides, the “Morphology of HEWL aggregates by AFM” value in data set [5] is “a mixture of unbranched filamentous assemblies”. The “Absorbance peak at 540 nm in CR difference spectra” value in data set [2] (48 h, spectrum of CR alone subtracted) is given as “only a modest decrease”. Further, in data set [2], the “CR absorbance relative to that measured” value is listed as “markedly higher”. Also, the “Relative efficacy as inhibitor in terms of IC50 value” in data set [3] (HEWL 140 µM, pH 2.5, 57 °C) is “minimum effect”. For the same compound, in data set [3], the pIC50 was 6.01. Also, the “Rescue of cell viability (MTT reduction)” value in data set [4] (24 h) is reported as “partial rescue”.
Regarding “HEWL aggregates: hen egg white lysozyme aggregates formed 48 h at pH 2.5, 57 °C in the absence of compounds”, the “Activation of caspase-3 as compared to untreated cells” value in data set [1] (HEWL aggregates at 2 µM, no compound) is 320 ± 12%. In addition, the “MTT reduction relative to untreated cells” value in data set [4] (setting [7]) was 73.9 ± 2.1%.
Consider “native HEWL: native hen egg white lysozyme”, for which, in data set [4] (setting [7]), the “MTT reduction relative to untreated cells” value was “unaffected”.

A word on the pIC50: it is the negative decadic logarithm of the IC50, by convention in mol/L. Usually melting point stands for the temperature of the solid-liquid transition.
